Laboratory results taken from patent publication US10722597B2, “Cyclodextrin-panobinostat adduct” (MIDATECH LTD., priority 2016, dated 2020).

What was measured:
[1] = tested on: U87MG (Glioblastoma) cell line; test: MTT cell viability (cytotoxicity); format: cell-based; conditions: 48 or 72 hrs exposure
Protocol: (§1) Error bars indicate plus or minus standard deviation of triplicate samples. N=1 experimental replicate.
(§2) Cell viability was then assessed using MTT reagent.

[2] = tested on: HEPG2 (Hepatocellular carcinoma) cell line; test: MTT cell viability (cytotoxicity); format: cell-based; conditions: HEPG2, 48 or 72 hrs exposure
Protocol: as §1, §2

[3] = Solubility of panobinostat free base in aqueous media; format: physicochemical
Protocol: The pH of the first aqueous solution is in the range 2.0 to 4.0, for example 2.5 to 3.5. Preferably, the pH of the first aqueous solution is about 3.0.
It is similarly insoluble in concentrated aqueous solutions of 2-hydroxypropyl-β-cyclodextrin (HP-β-CD) (450 mg/ml).

[4] = HPLC stability of 10 mM panobinostat stock solutions at room temperature; format: physicochemical
Protocol: Samples were diluted to allow analysis by HPLC (to avoid overloading the system). Peak areas were measured for both solutions at time 0, 100 h and 150 h post preparation. Samples were stored at room temperature over the course of the analysis. Percentage change was calculated based on the peak area and compared to analysis at time zero. One replicate was analysed and 7.2 μl was injected (equivalent to 0.25 μg on column) for each sample. The concentration of the stock solutions assessed was 10 mM. Column: Ascentis Express Peptide, ES-C18, 10 cm×4.6 mm Mobile phases: 0.1% trifluoroacetic acid (TFA) in acetonitrile (organic) and 0.1% trifluoroacetic acid in water HPLC: Agilent 1260 infinity HPLC conditions used: […]

Row | Compound | Toxicity (cell viability, MTT) [1] | Toxicity (cell viability, MTT) [2] | solubility ([3]; aqueous buffer, thermodynamic from solid, free base, citrate buffer at pH 3.0, read-out: Soluble concentration in citrate buffer) [mM] | Solubility in citrate buffer ([3]; citrate buffer at pH 3.0) | Solubility in concentrated aqueous 2-hydroxypropyl-β-cyclodextrin ([3]; free base, HP-β-CD 450 mg/ml) | Solubility in water ([3]; free base, water) | Decrease of Panobinostat concentration ([4]; DMSO solution, 100 hrs) [%] | Decrease of Panobinostat concentration ([4]; DMSO solution, 150 hrs) [%] | Decrease of Panobinostat concentration ([4]; citrate solution, 100 hrs) [%] | Decrease of Panobinostat concentration ([4]; citrate solution, 150 hrs) [%]
1 | 2-hydroxypropyl-β-cyclodextrin | essentially non-toxic | essentially non-toxic | – | – | – | – | – | – | – | –
2 | Cc1[nH]c2ccccc2c1CCNCc1ccc(/C=C/C(=O)NO)cc1 [Panobinostat, 2-(E)-N-hydroxy-3-[4[[[2-(2-methyl-1H-indol-3-yl)ethyl]amino]methyl]phenyl]-2-propenamide] | – | – | ≥ 10 | soluble | insoluble | poorly soluble | 2.8 | 4.4 | 0.4 | 1
